Assay results: US20230112484A1, “COMPOSITIONS FOR CROP PROTECTION” (Agrematch Ltd., priority 2020, published 2023)

Key:
Format in all cases: in vivo
[1] = test system: a variety of plants; assay: Foliar experiment (Example 2), overall statement; conditions: as shown in Table 5
Procedure: (§1) Compounds were dissolved in DMSO and then in distilled water to get 0.1 or 0.5 mg/ml solution with 2% DMSO. Break-Thru surfactant was added to a final concentration of 0.05%. Negative control—an aqueous solution of 2% DMSO and 0.05% Break-Thru. Positive control—2 mg/ml Glyphosate (Roundup). 1.5 ml of each compound solution were sprayed on the foliage of different plants, which were 6-16 days old at the day of the experiment. Each treatment contained 3 pots. Plants were let dry for about 15 minutes at room conditions, and then incubated at controlled growth chambers. Phytotoxicity was assessed and scored 4-10 days after applications. Scoring scale: 0—complete phytotoxic effect, 100—no effect. [table]

[2] = test system: Amaranthus palmeri; assay: Foliar experiment (Example 2); conditions: 0.5 mg/ml; score 0 = complete phytotoxic effect, 100 = no effect; 4-10 days after application
Procedure: as §1

[3] = test system: Solarium nigrum; assay: Foliar experiment (Example 2); conditions: 0.5 mg/ml; score 0 = complete phytotoxic effect, 100 = no effect
Procedure: as §1

[4] = test system: Triticum vulgare; assay: Foliar experiment (Example 2); conditions: score 0 = complete phytotoxic effect, 100 = no effect
Procedure: as §1

[5] = test system: Setaria adhaerens; assay: Foliar experiment (Example 2); conditions: 0.5 mg/ml; score 0 = complete phytotoxic effect, 100 = no effect
Procedure: as §1

[6] = test system: Sinapis alba; assay: Foliar experiment (Example 2); conditions: 0.5 mg/ml; score 0 = complete phytotoxic effect, 100 = no effect
Procedure: as §1

[7] = test system: Phalaris brachystachys; assay: Foliar experiment (Example 2); conditions: 0.5 mg/ml; score 0 = complete phytotoxic effect, 100 = no effect
Procedure: as §1

[8] = test system: Abutilon theophrasti; assay: Foliar experiment (Example 2); conditions: 0.5 mg/ml; score 0 = complete phytotoxic effect, 100 = no effect
Procedure: as §1

[9] = test system: Zea mays; assay: Foliar experiment (Example 2); conditions: score 0 = complete phytotoxic effect, 100 = no effect
Procedure: as §1

[10] = test system: Lolium rigidum; assay: Foliar experiment (Example 2); conditions: 0.5 mg/ml; score 0 = complete phytotoxic effect, 100 = no effect
Procedure: as §1

[11] = test system: Lactuca sativa; assay: Foliar experiment (Example 2); conditions: 0.5 mg/ml; score 0 = complete phytotoxic effect, 100 = no effect
Procedure: as §1

[12] = test system: Echinochloa colonum; assay: Foliar experiment (Example 2); conditions: 0.5 mg/ml; score 0 = complete phytotoxic effect, 100 = no effect
Procedure: as §1

[13] = test system: Gossypium hirsutum; assay: Foliar experiment (Example 2); conditions: 0.5 mg/ml; score 0 = complete phytotoxic effect, 100 = no effect
Procedure: as §1

[14] = test system: Brassica napus; assay: Foliar experiment (Example 2); conditions: 0.5 mg/ml; score 0 = complete phytotoxic effect, 100 = no effect
Procedure: as §1

[15] = test system: Amaranthus palmeri; assay: Soil germination (Example 1); conditions: for Amaranthus palmeri soil germination: score 0 = complete germination inhibition, 100 = no effect
Procedure: (§2) Compounds were dissolved in DMSO and then in distilled water to get 0.01-2 mg/ml solution with 1% or 2% DMSO. 1% or 2% DMSO solution in water was used as a negative control. As a positive control, 0.1 or 0.2 mg/ml oxyfluorfen (Galigan) solution was used.
(§3) Flowerpots were filled with 30 g of soil, and 4-5 seeds were sowed in each flowerpot. Each treatment contained 3 flowerpots. Each flowerpot was sprayed with 1.5 ml of the dissolved compound. Soil was let dry for about 1 hour at room conditions, and then each flowerpot was sub-irrigated with 40 ml water and incubated under conditions provided below.
(§4) Amaranthus palmeri was incubated at 25° C. for 8 hr in dark, followed by 16 hr at 30° C. in light. Lolium rigidum was incubated at 21° C. for 8 hr in dark, followed by 16 hr at 21° C. in light. Germination was assessed and scored after 4-7 days. Scoring scale: 0—complete germination inhibition, 100—no effect.

[16] = test system: Lolium rigidum; assay: Soil germination (Example 1)
Procedure: as §2, §3, §4

[17] = test system: Amaranthus palmeri; assay: Soil germination (Example 3); conditions: score 0 = complete germination inhibition, 100 = no effect, after 7 days
Procedure: (§5) Compounds were dissolved in DMSO and then in distilled water to get 0.1 or 0.5 mg/ml solution with 2% DMSO. 2% DMSO solution in water was used as a negative control. No positive control was used in this assay. Flowerpots were filled with 30 g of soil, each treatment contained three flowerpots. Each flowerpot was sprayed with 1.5 ml of the dissolved compound. Soil was let dry for about 1 hour at room conditions, and then each flowerpot was sub-irrigated with 40 ml water and incubated at controlled growth chambers, under conditions provided on table 6. Gemination was assessed and scored after 7 days. Scoring scale: 0—complete germination inhibition, 100—no effect. [table]

[18] = test system: Solarium nigrum; assay: Soil germination (Example 3); conditions: 0.5 mg/ml; score 0 = complete germination inhibition, 100 = no effect; after 7 days
Procedure: as §5

[19] = test system: Triticum vulgare; assay: Soil germination (Example 3); conditions: score 0 = complete germination inhibition, 100 = no effect, after 7 days
Procedure: as §5

[20] = test system: Setaria adhaerens; assay: Soil germination (Example 3); conditions: score 0 = complete germination inhibition, 100 = no effect, after 7 days
Procedure: as §5

[21] = test system: Sinapis alba; assay: Soil germination (Example 3); conditions: 0.5 mg/ml; score 0 = complete germination inhibition, 100 = no effect; after 7 days
Procedure: as §5

[22] = test system: Abutilon theophrasti; assay: Soil germination (Example 3); conditions: score 0 = complete germination inhibition, 100 = no effect, after 7 days
Procedure: as §5

[23] = test system: Zea mays; assay: Soil germination (Example 3); conditions: score 0 = complete germination inhibition, 100 = no effect, after 7 days
Procedure: as §5

[24] = test system: Lolium rigidum; assay: Soil germination (Example 3); conditions: score 0 = complete germination inhibition, 100 = no effect, after 7 days
Procedure: as §5

[25] = test system: Lactuca sativa; assay: Soil germination (Example 3); conditions: 0.5 mg/ml; score 0 = complete germination inhibition, 100 = no effect; after 7 days
Procedure: as §5

[26] = test system: Echinochloa colonum; assay: Soil germination (Example 3); conditions: score 0 = complete germination inhibition, 100 = no effect, after 7 days
Procedure: as §5

[27] = test system: Gossypium hirsutum; assay: Soil germination (Example 3); conditions: 0.5 mg/ml; score 0 = complete germination inhibition, 100 = no effect; after 7 days
Procedure: as §5

[28] = test system: Brassica napus; assay: Soil germination (Example 3); conditions: 0.5 mg/ml; score 0 = complete germination inhibition, 100 = no effect; after 7 days
Procedure: as §5

[29] = test system: Amaranthus palmeri; assay: Residual activity greenhouse assay; conditions: seeds sowed three weeks after pre-emergence application
Text: Residual activity of Compound 1 and Compound 2 was examined in greenhouse assay. Three weeks after pre-emergence application, new Amaranthus palmeri seeds were sowed on the same pots and germination was followed.

[30] = test system: Amaranthus palmeri; assay: Paper germination (Example 1); conditions: 0.1 mg/ml
Procedure: (§6) Compounds were dissolved in DMSO and then in distilled water to get 0.1 or 0.5 mg/ml solution with 0.5% DMSO.
(§7) 0.5% DMSO solution in water was used as a negative control. As a positive control, 0.1 mg/ml oxyfluorfen (Galigan) solution was used.
(§8) A towel paper was placed in each box as bedding for seeds. Each box was soaked with 6 ml of the solutions on its paper. 13 seeds were placed on the wet paper and the box was sealed and incubated under conditions provided bellow.
Amaranthus palmeri—first 2 days under dark conditions. Plants were first incubated at 25° C. for 8 hr, then at 30° C. for 16 hr. Afterwards, plants were incubated at 25° C. for 8 hr in dark, followed by 16 hr incubation at 30° C. in light.
(§9) Gemination was assessed and scored after 3-7 days. Scoring scale: 0—complete germination inhibition, 100—no effect.

[31] = test system: Lolium rigidum; assay: Paper germination (Example 1); conditions: 0.1 mg/ml
Procedure: as §6, §7, §8
Lolium rigidum—first 4 days under dark conditions at 21° C. Afterwards, plants were incubated at 21° C. for 8 hr in dark, followed by 16 hr at 21° C. in light.
as §9

CC(Cl)/C=C/C(=O)N(Cc1ccc(Cl)s1)CC(C)C (stereo not drawn) [Compound 4]
Herbicidal activity in a variety of plants, foliar, result in words [1]: solid herbicidal activity
Herbicidal activity, foliar, Amaranthus palmeri [2]: 0
Herbicidal activity, foliar, Solarium nigrum [3]: 0
Herbicidal activity, foliar, Triticum vulgare ([4]; 0.5 mg/ml): 100
Herbicidal activity, foliar, Setaria adhaerens [5]: 5
Herbicidal activity, foliar, Sinapis alba [6]: 10
Herbicidal activity, foliar, Phalaris brachystachys [7]: 5
Herbicidal activity, foliar, Abutilon theophrasti [8]: 5
Herbicidal activity, foliar, Zea mays ([9]; 0.5 mg/ml): 80
Herbicidal activity, foliar, Lolium rigidum [10]: 10
Herbicidal activity, foliar, Lactuca sativa [11]: 0
Herbicidal activity, foliar, Echinochloa colonum [12]: 70
Herbicidal activity, foliar, Gossypium hirsutum [13]: 60
Herbicidal activity, foliar, Brassica napus [14]: 0
Amaranthus palmeri soil germination ([15]; 0.1 mg/ml): 0
Amaranthus palmeri soil germination ([15]; 0.25 mg/ml): 0
Amaranthus palmeri soil germination ([15]; 0.5 mg/ml): 0
Amaranthus palmeri soil germination ([15]; 1 mg/ml): 0
soil germination of Amaranthus palmeri, result in words ([15]; concentration not given): active
Lolium rigidum soil germination ([16]; 0.5 mg/ml, score 0 = complete germination inhibition, 100 = no effect): 60
Lolium rigidum soil germination ([16]; 2 mg/ml, score 0 = complete germination inhibition, 100 = no effect): 70
soil germination of Lolium rigidum, result in words ([16]; concentration not given): active
Herbicidal activity, soil germination, Amaranthus palmeri ([17]; 0.5 mg/ml): 0
Herbicidal activity, soil germination, Solarium nigrum [18]: 10
Herbicidal activity, soil germination, Triticum vulgare ([19]; 0.5 mg/ml): 60
Herbicidal activity, soil germination, Setaria adhaerens ([20]; 0.5 mg/ml): 5
Herbicidal activity, soil germination, Sinapis alba [21]: 30
Herbicidal activity, soil germination, Abutilon theophrasti ([22]; 0.5 mg/ml): 10
Herbicidal activity, soil germination, Zea mays ([23]; 0.5 mg/ml): 80
Herbicidal activity, soil germination, Lolium rigidum ([24]; 0.5 mg/ml): 60
Herbicidal activity, soil germination, Lactuca sativa [25]: 70
Herbicidal activity, soil germination, Echinochloa colonum ([26]; 0.5 mg/ml): 5
Herbicidal activity, soil germination, Gossypium hirsutum [27]: 90
Herbicidal activity, soil germination, Brassica napus [28]: 10

CC(Cl)/C=C/C(=O)N(Cc1ccc(Cl)nc1)CC(C)C (stereo not drawn) [Compound 2]
Herbicidal activity, foliar, Triticum vulgare ([4]; 0.1 mg/ml): 90
Herbicidal activity, foliar, Zea mays ([9]; 0.1 mg/ml): 90
Amaranthus palmeri soil germination ([15]; 0.01 mg/ml): 60
Amaranthus palmeri soil germination ([15]; 0.025 mg/ml): 50
Amaranthus palmeri soil germination ([15]; 0.05 mg/ml): 0
Amaranthus palmeri soil germination ([15]; 0.1 mg/ml): 0
Herbicidal activity, soil germination, Amaranthus palmeri ([17]; 0.1 mg/ml): 0
Herbicidal activity, soil germination, Triticum vulgare ([19]; 0.1 mg/ml): 100
Herbicidal activity, soil germination, Setaria adhaerens ([20]; 0.1 mg/ml): 80
Herbicidal activity, soil germination, Abutilon theophrasti ([22]; 0.1 mg/ml): 100
Herbicidal activity, soil germination, Zea mays ([23]; 0.1 mg/ml): 100
Herbicidal activity, soil germination, Lolium rigidum ([24]; 0.1 mg/ml): 90
Herbicidal activity, soil germination, Echinochloa colonum ([26]; 0.1 mg/ml): 100
Residual activity: germination of newly sowed Amaranthus palmeri seeds [29]: no germination was observed

CC(Cl)/C=C/C(=O)N(CC(C)C)c1ccc(Cl)cc1F (stereo not drawn)
paper germination reduction of Amaranthus palmeri [30]: not active
paper germination reduction of Lolium rigidum [31]: not active
Lolium rigidum soil germination ([16]; 1 mg/ml): unable to reduce soil germination
